Measurements published in patent US10533021B2, “Boron-containing small molecules” (Anacor Pharmaceuticals, Inc., priority 2007, dated 2020).
Counter-ions that a name gives are not always drawn.

What was measured:
Nail plate penetration = assay type: in vitro ADME
[1] = Solubility (water and formulation solvents); assay type: physicochemical; conditions: water
E. coli = test: Resistance of E. coli mutants selected against the compound (MIC); assay type: cell-based; conditions: E. coli mutants showing resistance to compound vs wildtype
Excerpt: In an exemplary assay, activity of a representative compound against the editing domain was confirmed. To identify the target of the novel boron-containing antibacterial compound (A1), mutants in E. coli showing resistance to compound (A1) were isolated. […] The leuS gene from the mutants was cloned onto a plasmid and their resistance was confirmed by MIC. The editing domain from these mutants were sequenced and the mutations were all located in the editing domain of this enzyme.
All MIC testing of bacteria followed the Clinical and Laboratory Standards Institute (CLSI) guidelines for antimicrobial testing of aerobic bacteria (Methods for Dilution Antimicrobial Susceptibility Tests for Bacteria That Grow Aerobically; Approved Standard—Seventh Edition) (M07-A7) and anaerobic bacteria (Methods for Antimicrobial Susceptibility Testing of Anaerobic Bacteria; Approved Standard—Seventh Edition) (M11-A7).
Compare the minimal inhibitory concentration (MIC) of a tolC Escherichia coli strain bearing a pUC derived plasmid with and without an leuS gene insert.
If the MIC of the strain bearing the extra copies of leuS is greater than 2-fold more than the control strain then pour LB agar plates with four times the concentration of the MIC of the compound.
Plate 1×10^10 E. coli on ten plates containing 4×MIC of the compound. […]

## Cc1cc(C2CCCCC2)n(O)c(=O)c1 [ciclopirox, reference compound]
Nail plate penetration
  penetration of the nail plate: penetrates the nail plate poorly

## OB1OCc2cc(Cl)ccc21 [compound 2]
[1]
  solubility: > 100 µg/mL

## Fc1ccc2c(c1)COB2c1ccccc1 [Compound 3]
Nail plate penetration
  penetration of the nail plate: penetrates the nail plate poorly

## OB1OCc2cc(F)ccc21 [compound 1]
[1]
  solubility: > 100 µg/mL

## NCC1OB(O)c2ccccc21 (centres unmarked) [A1, 3-Aminomethyl-3H-benzo[c][1,2]oxaborol-1-ol) hydrochloride]
E. coli
  fold increase in resistance of E. coli mutants over wildtype: 32-256 fold
